Laboratory results: patent publication US20240216321A1, “FERMENTATIVELY-PRODUCED RETINOID CONTAINING COMPOSITIONS, AND THE METHDOS OF MAKING AND USING THE SAME” (DSM IP Assets B.V., priority 2022, published 2024)

Assays:
[1] = system: Corynebacterium xerosis; test: Antimicrobial efficacy test in analogy to challenge test NF EN ISO11930; type: cell-based; conditions: initial inoculum count 100,000, 22° C.
Method: (§1) The antimicrobial efficacy of retinol and retinyl acetate having different cis/trans ratio has been assessed in analogy to the regulatory challenge test method (NF EN ISO11930). Thus, solutions of the respective retinol and retinyl acetate mixtures (reference samples and inventive mixtures with a purity of about 98%) were prepared in physiological serum with 0.85 wt.-% NaCl under sterile conditions. The presence of cis and trans-isomers in the retinoid component were calculated by reversed phase C4 HPLC analysis, with the total cis-isomer content in the retinoid component, relative to the total weight of trans-isomers in the retinoid component detected, is reported in Table 4 below along the row labelled “cis/trans ratio”. Also reported for each sample was the specific retinoid used as the retinoid component (either retinyl acetate or retinol for all samples). The solutions of the active(s) were then deposed in 96-deep well plates (1.6 ml/well) at a concentration as specified by wt. % in Table 4 below. The wells were contaminated with Cutibacterium acnes, Corynebacterium xerosis, and Malassezia furfur, respectively, to obtain the initial contamination. The initial contamination count, which is listed as “initial inoculum count” for each test as indicated in Tale 4 below, was determined to be 100,000. After contamination, each well was thoroughly mixed to ensure a homogeneous distribution of the microbes. Then each plate was incubated at 22° C. for 24 h. The counting of the (remaining) population was carried out 24 hours after contamination, as indicated below in Table 4 by the rows labelled “24 hr”. The change in count from the initial inoculum count to the 24-hour count (in terms of percentage) is reflected in the Table below by the rows labelled “A R”.

[2] = system: Cutibacterium acnes; test: as above; type: cell-based; conditions: for 24 hr count (remaining population) / Δ R (change from initial inoculum count to 24-hour count): initial inoculum count 100,000, 22° C.; for reduction of Cutibacterium acnes: stated as reduction
Method: as §1

[3] = system: Malassezia furfur; test: as above; type: cell-based; conditions: concentration 0.25%, initial inoculum count 100,000, 22° C.
Method: as §1

[4] = type: physicochemical
Method: Retinoid quantification: Analysis of retinoids were carried out with a C4 reverse phase retinoid method (see below). The addition of all added intermediates gives the total amount of retinoids.
C4 reverse phase chromatography. For exact determination of discrete retinoids, the long run reverse phase system was used. Analytes were separated using the Agilent 1290 instrument with YMC Pro C4, 150×3.0 mm, 3 um column (YMC America, Allentown PA) stationary phase, and a 5 μl injection loop volume and column and sample tray controlled at 23° C. with gradients described in Table B. Analytes were detected at 210, 230 nm and 325 nm and the peak's identity was verified with LCMS. The analytes were separated as discrete peaks that were assigned according to the table below. […]
To determine oxidative stability of examples 1-5, each sample, the preparation of which is described above, was placed under ambient conditions (20° C. and 50% relative humidity preferred) in its own small brown glass vial, blanketed with argon, and put into an oven preheated to 105° C. Thereafter, the samples remained in the oven for 3 hours. After three hours the samples were taken out of the oven and analyzed via the same method(s) utilized to determine “initial” values as reported in Table 1 above. The values for each component were measured after the thermal stress test and compared to the values determined prior to the test. For clarity, example 1 indicated a total retinoid component (see row in Table 1 above labelled “all retinyl acetate (all species)”) prior to the thermal stress test of 90.53%; the change indicated in Table 2 of −1.31% below signifies that the total retinoid component determined after the thermal stress test was 89.22% (by weight relative to the entire sample weight).

[5] = 105° C. for 3 hours, blanketed with argon, change vs value before test

SMILES | 24 hr count (remaining population) ([1]; concentration 0.1%) | Δ R (change from initial inoculum count to 24-hour count) ([1]; concentration 0.1%) | 24 hr count (remaining population) ([1]; concentration 0.25%) | Δ R (change from initial inoculum count to 24-hour count) ([1]; concentration 0.25%) | 24 hr count (remaining population) ([2]; concentration 0.1%) | Δ R (change from initial inoculum count to 24-hour count) ([2]; concentration 0.1%) | reduction of Cutibacterium acnes ([2]; retinyl acetate mixtures) | 24 hr count (remaining population) ([2]; concentration 0.25%) | Δ R (change from initial inoculum count to 24-hour count) ([2]; concentration 0.25%) | 24 hr count (remaining population) [3] | Δ R (change from initial inoculum count to 24-hour count) [3] | other results
CC(=O)OC/C=C(C)/C=C/C=C(C)/C=C/C1=C(C)CCCC1(C)C [Ex. 7, Retinyl acetate] | 370,000 | 270% | 40,000 | −60% | 370,000 | 270% |  |  |  |  |  | 
CC(=O)OC/C=C(C)/C=C/C=C(C)/C=C/C1=C(C)CCCC1(C)C [Ex. 8, Retinyl acetate] | 70,000 | −30% | 37,000 | −63% | 70,000 | −30% | about 30% |  |  |  |  | 
CC(=O)OC/C=C(C)/C=C/C=C(C)/C=C/C1=C(C)CCCC1(C)C [Ex. 9, Retinyl acetate] | 70,000 | −30% | 10,000 | −90% | 70,000 | −30% | about 30% |  |  |  |  | 
CC1=C(/C=C/C(C)=C/C=C/C(C)=C/CO)C(C)(C)CCC1 [Ex. 10, Retinol] |  |  |  |  |  |  |  | 1,000 | −99% | 100,000 | 0% | 
CC1=C(/C=C/C(C)=C/C=C/C(C)=C/CO)C(C)(C)CCC1 [Ex. 11, Retinol] |  |  |  |  |  |  |  | 700 | −99.3% | 40,000 | −60% | reduction of Cutibacterium acnes ([2]; retinol compositions): 99.3%
CC(=O)OC/C=C(C)/C=C/C=C(C)/C=C/C1=C(C)CCCC1(C)C [Example 5, retinyl acetate] |  |  |  |  |  |  |  |  |  |  |  | 9Z-retinal, % change [4, 5]: 0.00%; Dihydro-actinidiole, % change [4, 5]: −0.01%; Dihydro-retinol, % change [4, 5]: 0.00%; E-Retinal, % change [4, 5]: −0.01%; E-retinol, % change [4, 5]: −0.01%; Retinyl acetate (all species), % change [4, 5]: −5.50%; Z-retinol, % change [4, 5]: −0.04%; cis-retinyl acetate, % change [4, 5]: −0.22%; Ethanol, % change ([4]; 105° C. for 3 hours, blanketed with argon, change vs value before test (wt. % of entire composition)): 0.00%; reduction in retinyl acetate (loss of retinyl acetate content) after heat stability test ([4]; 3 h): 5.50%
